Laboratory results as given in US9765092B2, “Tricyclic piperidine compounds” (ACTELION PHARMACEUTICALS LTD, priority 2013, dated 2017).

Each compound was assayed against human TPH1 (Homo sapiens (Human), UniProt P17752) (assay: Biochemical in vitro assay using fluorescence readout (TPH1 inhibition)). Settings: not given.
human TPH1, sequence (P17752 whole entry): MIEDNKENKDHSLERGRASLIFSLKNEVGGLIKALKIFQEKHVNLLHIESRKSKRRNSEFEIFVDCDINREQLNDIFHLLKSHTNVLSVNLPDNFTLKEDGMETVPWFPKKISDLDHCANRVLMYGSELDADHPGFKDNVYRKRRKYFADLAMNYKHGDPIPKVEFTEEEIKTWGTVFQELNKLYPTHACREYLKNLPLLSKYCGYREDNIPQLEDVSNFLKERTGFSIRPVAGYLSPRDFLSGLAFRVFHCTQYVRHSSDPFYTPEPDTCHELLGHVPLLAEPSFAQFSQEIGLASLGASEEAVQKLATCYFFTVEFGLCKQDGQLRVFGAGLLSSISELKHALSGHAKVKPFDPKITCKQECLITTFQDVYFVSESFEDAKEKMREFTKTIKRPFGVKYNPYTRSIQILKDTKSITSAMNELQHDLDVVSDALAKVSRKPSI

Compound | IC50 [nM]
CCc1nc(N2CCCS2(=O)=O)ccc1OCC(=O)N1CCc2nc3sc(C(F)(F)F)nn3c2C1c1ccc(Cl)cc1F (stereo not shown) [Example 5.1.3, 1-(5-(4-chloro-2-fluorophenyl)-2-(trifluoromethyl)-7,8-dihydro-[1,3,4]thiadiazolo[2′,3′:2,3]imidazo[4,5-c]pyridin-6(5H)-yl)-2-((6-(1,1-dioxidoisothiazolidin-2-yl)-2-ethylpyridin-3-yl)oxy)ethanone] | 10

Same assay, conditions: full length human TPH1, 40 μM L-tryptophan, 15° C., 60 minutes, fluorescence at 540 nm; mean if determined several times

Compound | IC50 [nM]
Cc1nn2c3c(nc2s1)CCN(C(=O)COc1ccc(C(N)=O)cc1Cl)C3c1ccc(Cl)cc1F (stereo not shown) [Example 1.4.26, 3-Chloro-4-(2-(5-(4-chloro-2-fluorophenyl)-2-methyl-7,8-dihydro-[1,3,4]thiadiazolo[2′,3′:2,3]imidazo[4,5-c]pyridin-6(5H)-yl)-2-oxoethoxy)benzamide] | 10
COC(=O)CCS(=O)(=O)c1ccc(OCC(=O)N2CCc3nc4sc(C)nn4c3C2c2ccc(Cl)cc2F)c(Cl)n1 (stereo not shown) [Example 1.4.11, Methyl 3-((6-chloro-5-(2-(5-(4-chloro-2-fluorophenyl)-2-methyl-7,8-dihydro-[1,3,4]thiadiazolo[2′,3′:2,3]imidazo[4,5-c]pyridin-6(5H)-yl)-2-oxoethoxy)pyridin-2-yl)sulfonyl)propanoate] | 57
Cc1nn2c3c(nc2s1)CCN(C(=O)COc1ccc(N2CCC(F)(F)C2)nc1Cl)C3c1ccc(Cl)cc1F (stereo not shown) [Example 1.4.37, 1-(5-(4-Chloro-2-fluorophenyl)-2-methyl-7,8-dihydro-[1,3,4]thiadiazolo[2′,3′:2,3]imidazo[4,5-c]pyridin-6(5H)-yl)-2-((2-chloro-6-(3,3-difluoropyrrolidin-1-yl)pyridin-3-yl)oxy)ethanone] | 3
COCCN(C)c1ccc(OCC(=O)N2CCc3nc4sc(C)nn4c3C2c2ccc(Cl)cc2F)c(Cl)n1 (stereo not shown) [Example 1.4.14, 1-(5-(4-Chloro-2-fluorophenyl)-2-methyl-7,8-dihydro-[1,3,4]thiadiazolo[2′,3′:2,3]imidazo[4,5-c]pyridin-6(5H)-yl)-2-((2-chloro-6-((2-methoxyethyl)(methyl)-amino)pyridin-3-yl)oxy)ethanone] | 3
Cc1nn2c3c(nc2s1)CCN(C(=O)COc1ccc(C(=O)N(C)C)nc1Cl)C3c1cnc(N(C)C)s1 (stereo not shown) [Example 1.22.9, 6-Chloro-5-(2-(5-(2-(dimethylamino)thiazol-5-yl)-2-methyl-7,8-dihydro-[1,3,4]thia-diazolo[2′,3′:2,3]imidazo[4,5-c]pyridin-6(5H)-yl)-2-oxoethoxy)-N,N-dimethylpicolinamide] | 9

Same assay, conditions: human TPH1, fluorescence readout

Compound | IC50 [nM]
Cc1nn2c3c(nc2s1)CCN(C(=O)COc1ccc(-c2ncco2)nc1Cl)[C@H]3c1sccc1F [Example 1.23.15, (R)-2-((2-chloro-6-(oxazol-2-yl)pyridin-3-yl)oxy)-1-(5-(3-fluorothiophen-2-yl)-2-methyl-7,8-dihydro-[1,3,4]thiadiazolo[2′,3′:2,3]imidazo[4,5-c]pyridin-6(5H)-yl)ethanone] | 20
COC(=O)c1ccc(C2c3c(nc4sc(C)nn34)CCN2C(=O)COc2ccc(NS(C)(=O)=O)nc2Cl)c(F)c1 (stereo not shown) [Example 1.79.1, methyl-4-(6-(2-((2-chloro-6-(methylsulfonamido)pyridin-3-yl)oxy)acetyl)-2-methyl-5,6,7,8-tetrahydro-[1,3,4]thiadiazolo[2′,3′:2,3]imidazo[4,5-c]pyridin-5-yl)-3-fluorobenzoate] | 17
CCc1nc(N2CCCS2(=O)=O)ccc1OCC(=O)N1CCc2nc3sc(C)nn3c2[C@@H]1c1sc(C)nc1C [Example 1.68.8, (R)-1-(5-(2,4-dimethylthiazol-5-yl)-2-methyl-7,8-dihydro-[1,3,4]thiadiazolo[2′,3′:2,3]imidazo[4,5-c]pyridin-6(5H)-yl)-2-((6-(1,1-dioxidoisothiazolidin-2-yl)-2-ethylpyridin-3-yl)oxy)ethanone] | 5
O=C(COc1ccc(CN2CCOCC2)nc1Cl)N1CCc2nc3sccn3c2C1c1cccnc1F (stereo not shown) [Example 6.2.7, ((2-chloro-6-(morpholinomethyl)pyridin-3-yl)oxy)-1-(5-(2-fluoropyridin-3-yl)-7,8-dihydrothiazolo[2′,3′:2,3]-imidazo[4,5-c]pyridin-6(5H)-yl)ethanone] | 235
CCc1nc(NS(C)(=O)=O)ccc1OCC(=O)N1CCc2nc3sc(CF)nn3c2C1c1ccc(C)cc1F (stereo not shown) [Example 7.3.2, N-(6-ethyl-5-(2-(5-(2-fluoro-4-methylphenyl)-2-(fluoromethyl)-7,8-dihydro-[1,3,4]thiadiazolo[2′,3′:2,3]imidazo[4,5-c]pyridin-6(5H)-yl)-2-oxoethoxy)pyridin-2-yl)methanesulfonamide] | 12
Cc1ccc(Cl)c(OCC(=O)N2CCc3nc4sccn4c3C2c2cc3cccnc3s2)c1 (stereo not shown) [Example 6.14.5, 2-(2-chloro-5-methylphenoxy)-1-(5-(thieno[2,3-b]-pyridin-2-yl)-7,8-dihydrothiazolo[2′,3′:2,3]imidazo[4,5-c]pyridin-6(5H)-yl)ethanone] | 43
O=C(COc1ccc(CN2CCOCC2)nc1Cl)N1CCc2nc3sccn3c2C1c1cnn(-c2ccccc2)c1 (stereo not shown) [Example 6.13.6, 2-((2-chloro-6-(morpholinomethyl)pyridin-3-yl)oxy)-1-(5-(1-phenyl-1H-pyrazol-4-yl)-7,8-dihydrothiazolo-[2′,3′:2,3]imidazo[4,5-c]pyridin-6(5H)-yl)ethanone] | 28
CCOC(=O)c1ncc(C2c3c(nc4sc(C)nn34)CCN2C(=O)COc2ccc(N3CCOCC3)nc2Cl)s1 (stereo not shown) [Example 1.30.1, Ethyl 5-(6-(2-((2-chloro-6-morpholinopyridin-3-yl)oxy)acetyl)-2-methyl-5,6,7,8-tetrahydro-[1,3,4]thiadiazolo [2′,3′:2,3]imidazo[4,5-c]pyridin-5-yl)thiazole-2-carboxylate] | 9
CCc1nc(C(=O)NC2CC2)ccc1OCC(=O)N1CCc2nc3sc(C)nn3c2C1c1sccc1F (stereo not shown) [Example 1.71.1, N-cyclopropyl-6-ethyl-5-(2-(5-(3-fluorothiophen-2-yl)-2-methyl-7,8-dihydro-[1,3,4]thiadiazolo[2′,3′:2,3]-imidazo[4,5-c]pyridin-6(5H)-yl)-2-oxoethoxy)picolinamide] | 12
Cc1nn2c3c(nc2s1)CCN(C(=O)COc1ccc(N2CCOCC2)nc1Cl)C3c1ncccc1F (stereo not shown) [Example 1.35.1, 2-((2-chloro-6-morpholinopyridin-3-yl)oxy)-1-(5-(3-fluoropyridin-2-yl)-2-methyl-7,8-dihydro-[1,3,4]thiadiazolo [2′,3′:2,3]imidazo[4,5-c]pyridin-6(5H)-yl)ethanone] | 6
CCc1nc(Cl)ncc1OCC(=O)N1CCc2nc3sc(C)nn3c2C1c1ccc(C)c(F)c1F (stereo not shown) [Example 1.61.4, 2-((2-chloro-4-ethylpyrimidin-5-yl)oxy)-1-(5-(2,3-difluoro-4-methylphenyl)-2-methyl-7,8-dihydro-[1,3,4]thiadiazolo[2′,3′:2,3]imidazo[4,5-c]pyridin-6(5H)-yl)ethanone] | 49
CCOC(=O)c1csc(C2c3c(nc4sc(C)nn34)CCN2C(=O)COc2ccc(C(F)(F)F)nc2Cl)n1 (stereo not shown) [Example 1.27.2, Ethyl 2-(6-(2-((2-chloro-6-(trifluoromethyl)pyridin-3-yl)oxy)acetyl)-2-methyl-5,6,7,8-tetrahydro-[1,3,4]thiadiazolo [2′,3′:2,3]imidazo[4,5-c]pyridin-5-yl)thiazole-4-carboxylate] | 500
Cc1nn2c3c(nc2s1)CCN(C(=O)COc1ccc(C(=O)N(C)C)nc1Cl)C3c1ccc(Cl)cc1F (stereo not shown) [Example 1.4.42, 6-chloro-5-(2-(5-(4-chloro-2-fluorophenyl)-2-methyl-7,8-dihydro-[1,3,4]thiadiazolo[2′,3′:2,3]imidazo[4,5-c]pyridin-6(5H)-yl)-2-oxoethoxy)-N,N-dimethylpicolinamide] | 18
CNC(=O)c1cc(F)c(C2c3c(nc4sc(C)nn34)CCN2C(=O)COc2ccc(N3CC(F)(F)C3)nc2Cl)s1 (stereo not shown) [Example 1.25.5, 5-(6-(2-((2-chloro-6-(3,3-difluoroazetidin-1-yl)pyridin-3-yl)oxy)acetyl)-2-methyl-5,6,7,8-tetrahydro-[1,3,4]thiadiazolo [2′,3′:2,3]imidazo[4,5-c]pyridin-5-yl)-4-fluoro-N-methylthiophene-2-carboxamide] | 7
Cc1cnc(C2c3c(nc4sc(C)nn34)CCN2C(=O)COc2ccc(C(F)(F)F)nc2Cl)c(F)c1 (stereo not shown) [Example 1.31.5, 2-((2-chloro-6-(trifluoromethyl)pyridin-3-yl)oxy)-1-(5-(3-fluoro-5-methylpyridin-2-yl)-2-methyl-7,8-dihydro-[1,3,4]thiadiazolo[2′,3′:2,3]imidazo[4,5-c]pyridin-6(5H)-yl)ethanone] | 21
Cc1nn2c3c(nc2s1)CCN(C(=O)COc1ccc(C(=O)N(C)C2CC2)nc1Cl)C3c1ccc(Cl)cc1F (stereo not shown) [Example 1.4.46, 6-chloro-5-(2-(5-(4-chloro-2-fluorophenyl)-2-methyl-7,8-dihydro-[1,3,4]thiadiazolo[2′,3′:2,3]imidazo[4,5-c]pyridin-6(5H)-yl)-2-oxoethoxy)-N-cyclopropyl-N-methylpicolinamide] | 16
Cc1nn2c3c(nc2s1)CCN(C(=O)COc1ccc(NS(C)(=O)=O)nc1Cl)C3c1ncc(F)cc1C (stereo not shown) [Example 1.75.1, N-(6-chloro-5-(2-(5-(5-fluoro-3-methylpyridin-2-yl)-2-methyl-7,8-dihydro-[1,3,4]thiadiazolo[2′,3′:2,3]imidazo[4,5-c]pyridin-6(5H)-yl)-2-oxoethoxy)pyridin-2-yl)methanesulfonamide] | 9
Cc1nn2c3c(nc2s1)CCN(C(=O)COc1ccc(N2CCOCC2)nc1Cl)C3c1cnc(OC(F)F)cc1C (stereo not shown) [Example 1.15.2, 2-((2-chloro-6-morpholinopyridin-3-yl)oxy)-1-(5-(6-(difluoromethoxy)-4-methylpyridin-3-yl)-2-methyl-7,8-dihydro-[1,3,4]thiadiazolo[2′,3′:2,3]imidazo[4,5-c]pyridin-6(5H)-yl)ethanone] | 7
CCc1nc(C(=O)NC2CC2)ccc1OCC(=O)N1CCc2nc3sc(CF)nn3c2C1c1sc(C)nc1C (stereo not shown) [Example 7.4.1, N-cyclopropyl-5-(2-(5-(2,4-dimethylthiazol-5-yl)-2-(fluoromethyl)-7,8-dihydro-[1,3,4]thiadiazolo[2′,3′:2,3]imidazo[4,5-c]pyridin-6(5H)-yl)-2-oxoethoxy)-6-ethylpicolinamide] | 7
